From patent publication US20070161547A1, “Modulation of survivin expression” (priority 2003, published 2007)

Test system: survivin protein
Assay: IC50 of dsRNA for survivin protein, quantitative Western blot ("W")
Assay type: cell-based, human
Details: W (Western blot), HeLa cells
Method: Western blot analysis (immunoblot analysis) is carried out using standard methods. Cells are harvested 16-20 hours after oligonucleotide treatment, washed once with PBS, suspended in Laemmli buffer (100 μl/well), boiled for 5 minutes and loaded on a 16% SDS-PAGE gel. Gels are run for 1.5 hours at 150 V, and transferred to membrane for western blotting. Appropriate primary antibody directed to survivin is used, with a radiolabelled or fluorescently labeled secondary antibody directed against the primary antibody species. Bands are visualized using a PHOSPHORIMAGER™ (Molecular Dynamics, Sunnyvale, Calif.).
For western blot analysis, cells are plated in 10 cm tissue culture dishes (Falcon, #3003) at a density of 7.5×10^5 cells/dish. For RT-PCR analysis, 96-well plates (Corning Incorporated, #3596) are plated with 1×10^4 cells/well. Lipofectin (GIBCO/Invitrogen) transfection reagent is used at a concentration of 3 ul/ml OPTIMEM reduced serum medium (Gibco/Invitrogen)/100 nM siRNA duplex. Lipofectin reagent is incubated with OPTIMEM medium for 30 minutes prior to the addition of siRNA. The desired amount of siRNA is added and mixed. Further 1:1 dilutions are performed in OPTIMEM. Cells are washed twice with 1× phosphate buffered saline and then treated with the siRNA/Lipofectin mixture in OPTIMEM. After a 4 hr incubation period, OPTIMEM medium is replaced with complete growth medium. Cells are harvested after additional 16-20 hrs for Western blot or RT-PCR analysis.
At the end of the incubation period culture medium is removed and cells are washed twice with PBS. Cells are lysed in RIPA buffer (20 mM Tris-HCl, pH 7.4, 5 mM EDTA, 50 mM NaCl, 10 mM Sodium Pyrophosphate, 50 mM Sodium Fluoride, and 1% Nonidet P40) plus Complete™ Mini protease inhibitor tablets (Roche, #1836153) and 1 mM Sodium orthovanadate (Sigma) by directly adding buffer to the plate. Lysates are collected by scrapping, transferred to microfuge tubes and cleared from the cellular debris by centrifugation at 14,000 rpm for 30 minutes at 4° C. Protein concentrations are determined using BCA protein assay yeagents (Pierce). Total cellular protein is subjected to SDS-PAGE and transferred onto Immobilon-P membranes (Millipore, #IPVHO91). Membranes are probed with primary antibodies to survivin (R&D Systems, #AF886) and to β-Actin (Sigma, #A5441). Horseradish peroxidase linked Anti-rabbit Ig, and anti-mouse Ig, antibodies (Pharmacia) are used as secondary antibodies. Antigen-antibody complexes are visualized by incubation of membrane in SuperSigmal West Pico chemiluminescence reagents (Pierce) for 5 minutes followed by capturing of the chemiluminescence using Fluor-S imager (Biorad) equipped with the cool CCD camera. The protein bands of interest for each sample are quantified using Quantity One software (Biorad). The percentage inhibition for each samples are calculated by comparing the survivin/Actin protein ratio for the sample to survivin/Actin protein ratio for the untreated control. The IC50 is derived from the non-linear regression analysis of the percentage inhibition data using GraphPad Prism software (GraphPad Software).
The constructs tested comprise the antisense strand in the 5′-3′ orientation, and the sense strand in the 5′ to 3′ orientation, In Table 15, “D” is dose response (mRNA levels) and “W” is Western blot. All internucleoside linkages are phosphodiester unless otherwise noted by a lowercase “s” indicating a phosphorothioate linkage.

Substance	IC50
339045_339075 (antisense AUCCAUGGCAGCCAGCUGCU; sense AGCAGCUGGCUGCCAUGGAU; siRNA; unmodified RNA)	5.5 nM
339048_339078 (antisense AUUUGAAAAUGUUGAUCUCC; sense GGAGAUCAACAUUUUCAAAU; siRNA; unmodified RNA)	3.97 nM
339052_339082 (antisense GCAAAAGGGACACUGCCUUC; sense GAAGGCAGUGUCCCUUUUGC; siRNA; unmodified RNA)	≥ 100 nM
339056_339086 (antisense UAAGGAACCUGCAGCUCAGA; sense UCUGAGCUGCAGGUUCCUUA; siRNA; unmodified RNA)	7.5 nM
339058_339088 (antisense AACAAAAUAAGAAAGCCAUG; sense CAUGGCUUUCUUAUUUUGUU; siRNA; unmodified RNA)	7.23 nM
339060_339090 (antisense AGUUUGUGCUAUUCUGUGAA; sense UUCACAGAAUAGCACAAACU; siRNA; unmodified RNA)	4.43 nM
